Reference: patent US20080045513A1, “C[…] INHIBITOR AND […], ANTI-INFLAMMATORY OR ANTI-PYRETIC AGENT” (N.V. Organon, priority 2006, published 2008)

Experiments:
FAAH = molecular target: T1, FAAH (Homo sapiens, UniProt O00519); assay: FAAH LC-MS/MS screening assay (anandamide hydrolysis by human liver microsomes); assay type: biochemical; conditions: for anandamide hydrolysis allowed (percent hydrolysis normalized to control): inhibitor at 30 nM, 60 minute incubation at 37° C.
T1 construct: 25 μL of human liver microsomes (31.3 μg); from tissue; host or cells: human liver microsomes
T1 sequence (O00519 1-579): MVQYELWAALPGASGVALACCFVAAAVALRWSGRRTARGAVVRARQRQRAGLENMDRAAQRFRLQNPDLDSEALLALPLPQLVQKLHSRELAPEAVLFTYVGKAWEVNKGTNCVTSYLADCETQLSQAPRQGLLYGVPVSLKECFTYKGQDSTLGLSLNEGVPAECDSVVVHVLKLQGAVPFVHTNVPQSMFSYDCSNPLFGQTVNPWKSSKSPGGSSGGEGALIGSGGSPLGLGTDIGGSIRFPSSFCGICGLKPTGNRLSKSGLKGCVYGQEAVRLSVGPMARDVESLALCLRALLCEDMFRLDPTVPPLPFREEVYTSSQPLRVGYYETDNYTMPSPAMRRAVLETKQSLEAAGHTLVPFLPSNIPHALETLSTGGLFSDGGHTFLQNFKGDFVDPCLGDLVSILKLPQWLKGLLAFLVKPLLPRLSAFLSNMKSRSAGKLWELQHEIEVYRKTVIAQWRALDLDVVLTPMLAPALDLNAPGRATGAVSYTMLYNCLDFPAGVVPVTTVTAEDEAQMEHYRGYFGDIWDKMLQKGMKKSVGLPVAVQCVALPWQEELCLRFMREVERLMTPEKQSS
Procedure: For determining IC50 values for candidate FAAH inhibitor compounds, the above method is used with an adjusted FAAH inhibitor concentration. In the IC50 assay, the FAAH inhibitor is added at a concentration range of approximately 3 μM to 0.03 nM. The final calculation of IC50 is determined by first transforming the concentrations by “X=log(X)” and then analyzing the data with a sigmoidal dose-response curve (no constraints) using GraphPad Prism version 4.00 for Windows (GraphPad Software, San Diego Calif. USA, www.graphpad.com).

[1] = system: CFA-induced mechanical hyperalgesia in rats; assay: Complete Freund's Adjuvant (CFA)-induced mechanical hyperalgesia (paw withdrawal threshold); assay type: in vivo, male Wistar rats; conditions: 60 mg/kg, p.o.; 24 h after intraplantar CFA; reading 2 h post drug administration
Procedure: In this rat model of inflammatory pain, inflammation is induced by intraplantar injection of complete Freund's adjuvant (CFA) into the hind paw. The associated mechanical hyperalgesia is quantified by measuring the reduction in paw withdrawal threshold (PWT) to a mechanical compression of the paw.
Experiments were conducted using male Wistar rats weighing 130-180 g. In brief, the rats' paw withdrawal threshold (PWT) to a mechanical compression of the hind paw was measured (baseline reading) using a Randall-Sellito apparatus (Ugo Basile). A cut-off of 200 g was employed to minimise tissue damage to the paw. The animals were then briefly anaesthetised with isoflurane (˜2%) and complete Freund's adjuvant (0.1 ml per paw) was injected subcutaneously (s.c.) into the plantar surface of the left hind paw. The animals were then returned to their home cage and left for the inflammation to develop.
Twenty four hours after CFA injection, PWT's were re-measured (0 min); only those animals developing hyperalgesia (>20 g decrease in PWT compared to their baseline readings) were included for drug assessment. Rats were then dosed orally with either vehicle or test compound. Readings were then made at 2 h post drug administration.

[2] = Pharmacokinetics in rats following oral administration as a suspension; blood concentrations of compound, acetaminophen and fatty acid ethanolamides; assay type: in vivo; conditions: 10 mg/kg oral gavage
Procedure: Potential FAAH inhibitors are formulated for oral (p.o.), intraperitoneal (i.p.) or intravenous (i.v.) delivery to rats. Formulated compounds are administered and the animals were sacrificed at pre-determined time points post dose. At sacrifice, blood samples are collected into EDTA plasma tubes and whole brains were snap frozen in liquid nitrogen. EDTA plasma was isolated from blood samples after centrifugation. Brain and plasma samples are stored at −80° C. prior to analysis. All samples (brain and plasma) are analyzed for the concentrations of test compound (FAAH inhibitor), metabolites of the test compound (such as, for example, acetaminophen, propofol, NSAID, or NSAID metabolite) and endogenous fatty acid ethanolamide levels (including anandamide, oleoylethanolamide, and palmitoylethanolamide) by LC-MS/MS according to the invention. Levels of these compounds are compared across time points to determine pharmacokinetic properties of the test compound and partial pharmacological effects of inhibiting FAAH activity (including changes of fatty acid ethanolamide levels).
The pharmacokinetic properties of 4-acetamidophenyl cyclohexylnethylcarbamate were assessed in rats following oral administration as a suspension. […] The suspension of 4-acetamidophenyl cyclohexylmethylcarbamate was administered to rats at a dose of 10 mg/kg of 4-acetamidophenyl cyclohexylmethylcarbamate via oral gavage. Blood samples were extracted from the rats. Samples were analyzed for concentrations of OEA, PEA, AEA, 4-acetamidophenyl cyclohexylmethylcarbamate and acetaminophen (in-vivo metabolite). Baseline levels of OEA and PEA were 4.18 and 4.17 ng/mL, respectively.

SMILES | anandamide hydrolysis allowed (percent hydrolysis normalized to control) (FAAH) [%] | reversal of mechanical hyperalgesia [1] | IC50 (FAAH; inhibitor range approximately 3 μM to 0.03 nM) [nM] | AUC of AEA [2] [ng·h/mL] | Tmax of AEA [2] [h] | Tmax of OEA [2] [h] | Tmax of PEA [2] [h] | AUC of OEA ([2]; baseline OEA 4.18 ng/mL) [ng·h/mL] | Cmax of OEA ([2]; baseline OEA 4.18 ng/mL) [ng/mL] | AUC of PEA ([2]; baseline PEA 4.17 ng/mL) [ng·h/mL] | Cmax of PEA ([2]; baseline PEA 4.17 ng/mL) [ng/mL] | AUC ([2]; rat, plasma, suspension) [ng·h/mL] | Cmax ([2]; rat, plasma, suspension) [ng/mL] | Tmax ([2]; rat, plasma, suspension) [min]
CC(=O)Nc1ccc(OC(=O)NC2CCCCC2)cc1 [4-acetamidophenyl cyclohexylcarbamate] | 56 |  |  |  |  |  |  |  |  |  |  |  |  | 
NC(=O)c1cccc(-c2cccc(OC(=O)NC3CCCCC3)c2)c1 [reference compound] | 30 |  |  |  |  |  |  |  |  |  |  |  |  | 
CC(=O)Nc1ccc(OC(=O)NCC2CCCCC2)cc1 [4-acetamidophenyl cyclohexylmethylcarbamate] | 37 | complete reversal | 14.6 | 0 | 0 | 1.5 | 1 | 40 | 7.55 | 43 | 8.85 | 6780 | 7740 | 30
